Source: US6358522B1, “Pharmaceutical compositions containing lipase inhibitor” (Hoffmann-La Roche Inc., priority 1998, dated 2002)

Assay: Anal leakage of oil in rats on high fat diet with diet-admixed orlistat
Format: in vivo
From the text: Rats maintained on high fat diet were used as models. […] However, the amount of oil leakage could not easily be determined. Due to coprophagia and extensive grooming activity the rats distributed the oil to a large extent over their fur. Moreover, this stressful condition of unsuccessful grooming provoked considerable excitation of the animals. The area of greasy fur increased in proportion to the amount of unabsorbed fat and was reduced by dietary admixture of selected examples of the above defined food additives. However, for reasons of animal care for comparative evaluation of the additives a surrogate parameter was used to assess effects on oil leakage. Following a meal containing orlistat, unabsorbed fat is temporarily stored in the caecum of the rat prior to excretion. The fat is partly present as floating liquid oil, partly associated with unabsorbable solids.

## CCCCCCCCCCC[C@@H](C[C@@H]1OC(=O)[C@H]1CCCCCC)OC(=O)[C@H](CC(C)C)NC=O [orlistat, N-formyl-L-leucine ester with (3S,4S)-3-hexyl-4-[(2S)-2-hydroxy-tridecyl]-2-oxetanone]
  Anal leakage of oil: provoked anal leakage of liquid oil
